From patent US9550796B2, “Pyrrolopyrrolone derivatives and their use as BET inhibitors” (NOVARTIS AG, priority 2013, dated 2017)

Experiments:
[1] = biological target: BRD2 (Homo sapiens (Human), UniProt P25440); assay: TR-FRET in-vitro binding assay for BRD2; conditions: 45 nM His-Brd2(60-472), acetyl-histone H4 (AcK 5, 8, 12, 16) peptide
In short: (§1)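 TR-FRET binding read after 35 min incubation at 30° C. Compounds dispensed from 90% DMSO solutions and tested at 8 concentrations in a 13.55 μL total reaction volume.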

[2] = biological target: BRD4 (Homo sapiens (Human), UniProt O60885); assay: TR-FRET in-vitro binding assay for BRD4; conditions: 45 nM His-Brd4(44-477), acetyl-histone H4 (AcK 5, 8, 12, 16) peptide
In short: as §1

[3] = test system: THP-1; assay: Cell growth inhibition assay (CellTiter-Glo), THP-1; assay type: cell-based, human; conditions: THP-1 cells, 4 days; for GI50: Homo sapiens, 96 h, half-maximal growth inhibition; for THP-1 TGI: total growth inhibition
In short: (§2)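 Cells were exposed 4 days at 37 °C, 5% CO2 to 3-fold serial dilutions starting at 10 μM (0.1% DMSO vehicle). Viability was measured as ATP by CellTiter-Glo luminescence, corrected for background and a day-0 plate. IC50 and TGI were derived by four-parameter fitting.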

[4] = test system: K-562; assay: Cell growth inhibition assay (CellTiter-Glo), K-562; assay type: cell-based, human; conditions: K-562 cells, 4 days; for GI50: Homo sapiens, K562, 96 h, half-maximal growth inhibition; for K-562 TGI: total growth inhibition
In short: as §2

[5] = test system: MV-4-11; assay: Cell growth inhibition assay (CellTiter-Glo), MV-4-11; assay type: cell-based, human; conditions: MV-4-11 cells, 4 days; for GI50: Homo sapiens, MV4-11, 96 h, half-maximal growth inhibition; for MV-4-11 TGI: total growth inhibition
In short: as §2

[6] = biological target: BRD4-NUT-fusion (Homo sapiens, UniProt O60885); assay: Nut-foci formation assay in HCC2494 NUT midline carcinoma cells; assay type: cell-based; conditions: 24 hours, nuclear BRD4-NUT foci by immunofluorescence microscopy, read-out: HCS Brd4-NUT IC50
Experimental: Nut-Foci Formation Assay […] Compound-mediated inhibition of BRD4 activity can be monitored by quantification of the number and intensity of nuclear BRD4-NUT foci using automated immunofluorescence microscopy. Briefly, 5000 cells in 20 μL fresh medium are seeded into Poly-D-Lysine-precoated 384-well plates and incubated overnight at 37° C. and 5% CO2, followed by addition of 5 μl medium containing compound dilutions at 5-fold their final intended concentration. […] Assay plates can be imaged using the appropriate filter sets on the Cellomics VTi automated fluorescence microscopy platform (ThermoFisher Scientific) and the population average of the number of NUT-foci per nucleus is quantified using the Cellomics Spot Detection BioApplication image analysis algorithm (ThermoFisher Scientific). […] Compound concentrations leading to half-maximal (IC50) inhibition of the aforementioned readout parameters are determined using standard four parameter curve fitting.

[7] = biological target: BRD3 (Homo sapiens (Human), UniProt Q15059); assay: TR-FRET in-vitro binding assay for BRD3; conditions: 45 nM His-Brd3(20-477), acetyl-histone H4 (AcK 5, 8, 12, 16) peptide
In short: as §1

Chain of BRD2 (P25440 60-472): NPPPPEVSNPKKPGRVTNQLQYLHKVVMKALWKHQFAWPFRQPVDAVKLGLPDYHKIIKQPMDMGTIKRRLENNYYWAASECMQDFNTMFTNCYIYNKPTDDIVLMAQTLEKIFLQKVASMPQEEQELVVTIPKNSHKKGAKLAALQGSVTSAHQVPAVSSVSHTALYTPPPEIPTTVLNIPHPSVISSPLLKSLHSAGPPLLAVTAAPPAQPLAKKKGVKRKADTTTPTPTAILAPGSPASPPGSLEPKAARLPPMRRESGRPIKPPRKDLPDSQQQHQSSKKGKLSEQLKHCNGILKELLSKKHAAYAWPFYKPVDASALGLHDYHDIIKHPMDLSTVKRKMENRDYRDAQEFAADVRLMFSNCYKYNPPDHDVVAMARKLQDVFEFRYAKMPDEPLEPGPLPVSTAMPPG
Chain of BRD3 (Q15059 20-477): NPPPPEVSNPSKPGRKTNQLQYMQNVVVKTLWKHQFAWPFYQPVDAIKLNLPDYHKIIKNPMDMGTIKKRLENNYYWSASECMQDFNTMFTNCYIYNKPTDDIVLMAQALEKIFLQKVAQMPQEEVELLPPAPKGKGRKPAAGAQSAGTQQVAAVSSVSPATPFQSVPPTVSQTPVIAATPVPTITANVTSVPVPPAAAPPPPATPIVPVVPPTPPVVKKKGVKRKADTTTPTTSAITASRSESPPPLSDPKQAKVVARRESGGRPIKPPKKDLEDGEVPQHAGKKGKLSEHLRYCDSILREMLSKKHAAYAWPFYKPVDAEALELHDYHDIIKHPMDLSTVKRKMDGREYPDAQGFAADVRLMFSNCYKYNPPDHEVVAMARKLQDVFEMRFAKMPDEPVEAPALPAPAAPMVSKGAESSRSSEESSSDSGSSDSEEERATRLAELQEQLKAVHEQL

| Compound | IC50 [1] | IC50 [2] | GI50 [3] | GI50 [4] | GI50 [5] | IC50 [6] | IC50 [7] | THP-1 TGI [3] | K-562 TGI [4] | MV-4-11 TGI [5] |
| --- | --- | --- | --- | --- | --- | --- | --- | --- | --- | --- |
| Cc1cn(C)c2c1C(=O)N(c1cc(C)c(=O)n(C)c1)C2c1ccc(Cl)cc1 (centres unmarked) [Example 34, 6-(4-chlorophenyl)-5-(1,5-dimethyl-6-oxo-1,6-dihydropyridin-3-yl)-1,3-dimethyl-5,6-dihydropyrrolo[3,4-b]pyrrol-4(1H)-one] | 37 nM | 43 nM | 43.8 nM | 241 nM | 19.4 nM | 26.8 nM | 32 nM | 99.4 nM | >10000 nM | 48.3 nM |
| COc1ncc(-c2cc3c(n2C)C(c2ccc(Cl)cc2)N(c2cc(Cl)c(=O)n(C)c2)C3=O)c(OC)n1 (centres unmarked) [Example 38, 5-(5-chloro-1-methyl-6-oxo-1,6-dihydropyridin-3-yl)-6-(4-chlorophenyl)-2-(2,4-dimethoxypyrimidin-5-yl)-1-methyl-5,6-dihydropyrrolo[3,4-b]pyrrol-4(1H)-one] | 322 nM | 47 nM | 37.5 nM | 154 nM | 29.4 nM | 72.5 nM | 59 nM | 72.7 nM | >10000 nM | 51.5 nM |
| COc1ncc(-c2cc3c(n2C)[C@@H](c2ccc(Cl)cc2)N(c2cc(C)c(=O)n(C)c2)C3=O)c(OC)n1 [Example 54, (R)-6-(4-chlorophenyl)-2-(2,4-dimethoxypyrimidin-5-yl)-5-(1,5-dimethyl-6-oxo-1,6-dihydropyridin-3-yl)-1-methyl-5,6-dihydropyrrolo[3,4-b]pyrrol-4(1H)-one] | 27 nM | 45 nM | 23.3 nM | 48.3 nM | 8.9 nM | 26.7 nM | 28 nM | 41.5 nM | >10000 nM | 18 nM |
| Cc1cn(C)c2c1C(=O)N(c1cc(C)c3nnc(C)n3c1)C2c1ccc(Cl)cc1 (centres unmarked) [Example 33, 6-(4-chlorophenyl)-5-(3,8-dimethyl-[1,2,4]triazolo[4,3-a]pyridin-6-yl)-1,3-di methyl-5,6-dihydropyrrolo[3,4-b]pyrrol-4(1H)-one] | 36 nM | 31 nM | 17.4 nM | 97.4 nM | 7.71 nM | 9.55 nM | 35 nM | 35.6 nM | >10000 nM | 20.05 nM |
| COc1ncc(-c2cc3c(n2C)[C@@H](c2ccc(Cl)cc2)N(c2cc(C)c(=O)n(C)c2)C3=O)cn1 [Example 56, (R)-6-(4-chlorophenyl)-5-(1,5-dimethyl-6-oxo-1,6-dihydropyridin-3-yl)-2-(2-methoxypyrimidin-5-yl)-1-methyl-5,6-dihydropyrrolo[3,4-b]pyrrol-4(1H)-one] | 30 nM | 28.3 nM | 30.3 nM | 103 nM | 24.8 nM | 39.1 nM | 22 nM | 50.7 nM | >10000 nM | 44.5 nM |

Further lines, with some results ahead:

| IC50 [1] | IC50 [2] | GI50 [3] | GI50 [4] | GI50 [5] | IC50 [6] | IC50 [7] | Compound | THP-1 TGI [3] | K-562 TGI [4] | MV-4-11 TGI [5] |
| --- | --- | --- | --- | --- | --- | --- | --- | --- | --- | --- |
| 22 nM | 24.5 nM | 109 nM | 345 nM | 55.9 nM | 97.3 nM | 18.5 nM | Cc1cc(N2C(=O)c3cc(-c4ccn(C)c(=O)c4)n(C)c3C2c2ccc(Cl)cc2)cn(C)c1=O (centres unmarked) [Example 45, 6-(4-chlorophenyl)-5-(1,5-dimethyl-6-oxo-1,6-dihydropyridin-3-yl)-1-methyl-2-(1-methyl-2-oxo-1,2-dihydropyridin-4-yl)-5,6-dihydropyrrolo[3,4-b]pyrrol-4(1H)-one] | 213 nM | >10000 nM | 96.7 nM |
| – | 270 nM | 811 nM | 3190 nM | 227 nM | 4970 nM | 53 nM | Cn1c(-c2ccc(=O)n(C)c2)cc2c1C(c1ccc(Cl)cc1)N(c1cc(Cl)c(=O)n(C)c1)C2=O (centres unmarked) [Example 42, 5-(5-chloro-1-methyl-6-oxo-1,6-dihydropyridin-3-yl)-6-(4-chlorophenyl)-1-methyl-2-(1-methyl-6-oxo-1,6-dihydropyridin-3-yl)-5,6-dihydropyrrolo[3,4-b]pyrrol-4(1H)-one] | 1470 nM | >10000 nM | 348 nM |
| 135 nM | 85.3 nM | 74.3 nM | 289 nM | 54.8 nM | 11.2 nM | 53.3 nM | Cc1cc2c(n1C)[C@@H](c1ccc(Cl)cc1)N(c1cc(Cl)c(=O)n(C)c1)C2=O [Example 75, (R)-5-(5-chloro-1-methyl-6-oxo-1,6-dihydropyridin-3-yl)-6-(4-chlorophenyl)-1,2-dimethyl-5,6-dihydropyrrolo[3,4-b]pyrrol-4(1H)-one] | 167 nM | >10000 nM | 102 nM |
| 198 nM | 109 nM | 88.9 nM | 342 nM | 57.6 nM | 10.1 nM | 94.5 nM | Cn1ccc2c1[C@@H](c1ccc(Cl)cc1)N(c1cc(Cl)c(=O)n(C)c1)C2=O [Example 77, (R)-5-(5-chloro-1-methyl-6-oxo-1,6-dihydropyridin-3-yl)-6-(4-chlorophenyl)-1-methyl-5,6-dihydropyrrolo[3,4-b]pyrrol-4(1H)-one] | 146 nM | >10000 nM | 96.3 nM |
